# From US20260125428A1, “SYNTHETIC TRIPLEX PEPTIDE NUCLEIC ACID-BASED INHIBITORS FOR CANCER THERAPY” (University of Connecticut, priority 2022, published 2026)
# What was measured:
# U2932 cells = test: Viability of U2932 cells, combination of PNAs with HDAC inhibitors and other drugs
# Method: FIGS. 9A-D show cell viability after treatment with indicated PNAs. (9A) The viability of U2932 cells after treatment with γPNA1-NLS (8 μM), romidepsin (10 nM) and combination of γPNA1-NLS with romidepsin over 96 hours. (9B) The viability of U2932 cells after treatment with γPNA2-NLS (8 μM), romidepsin (10 nM) and combination of γPNA2-NLS with romidepsin over 96 hours. (9C) Fold change in C-Myc levels after combination of γPNA1-NLS and γPNA2-NLS with romidepsin in comparison to only romidepsin treatment. (9D) Fold change in BCL2 levels after combination of γPNA1-NLS and γPNA2-NLS with romidepsin in comparison to only romidepsin treatment.
# FIGS. 10A-F show the viability of U2932 cells after indicated treatment. (10A) Viability of U2932 cells after treatment with γPNA2-NLS […], vorinostat (2.5 μM) and combination of γPNA2-NLS with vorinostat over 96 hours. (10B) The viability of U2932 cells after treatment with γPNA2-NLS (8 μM), valproic acid (2 mM) and combination of γPNA2-NLS with valproic acid over 96 hours. […] (10E) The viability of U2932 cells after treatment with CHOP (cyclophosphamide, vincristine, doxorubicin, prednisone) and combination of γPNA2-NLS with CHOP at different doses.
# Cell viability: U2932 and Raji cells were seeded in 96 well plates at 20,000 cells/well. PNAs were added to the media at different concentrations (1, 2, 4, and 8 μM). […] The cell viability was then measured via trypan blue staining on day 1, 2, and 4.
# C-Myc oncogene [1] = test: Gene expression (RT-PCR) in U2932 cells after combination treatment; assay type: cell-based, human
# Method: (§1) Gene expression: The levels of mRNA were measured in different cell lines using real time-polymerase chain reaction (RT-PCR). Both untreated (PBMC, U2932, Raji, Daudi) and PNA treated lymphoma cells were collected at the end of treatment. Total RNA was extracted using Qiagen RNeasy® kit (USA) and concentration was measured by Nanodrop™. cDNA was synthesized using high capacity cDNA reverse transcription kit (Applied Biosystem, USA) following the recommended cycling conditions. Taqman® gene expression assay for C-Myc, EZH2, BCL2, MCL1 and GAPDH were used to amplify the respective mRNAs using the specified cycling conditions in the CFX Real-Time PCR detection system. GAPDH was used as the reference gene and fold change in mRNA expression was obtained by normalizing against the untreated cells or cells treated with HDAC inhibitors.
# C-Myc oncogene [2] = test: Gene expression (RT-PCR) of C-Myc and downstream targets in U2932 cells; assay type: cell-based, human; details: RT-PCR, 24 h, 8 μM
# Method: (§2) FIGS. 4A-F show effect of cellular uptake of indicated PNAs. (4A) Expression levels of C-Myc oncogene in U2932 (DLBCL), Raji and Daudi cells (Burkitt's lymphoma) in comparison to the peripheral blood mononuclear cells (PBMC). (4B) Cell viability of U2932 cells after 24 h treatment with indicated PNAs at different doses. (4C) Cell viability of Raji cells after 24 h treatment with indicated PNAs at different doses. (4D) Gene expression levels of C-Myc oncogene and its downstream targets including MCL1 and EZH2 in U2932 cells after 24 h of treatment with γPNA1-NLS, γPNA2-NLS, and ScrγPNA4-NLS at 8 μM. (4E) Gene expression levels of C-Myc oncogene and its downstream targets including BCL2 and EZH2 in Raji cells after 24 h of treatment with γPNA1-NLS, γPNA2-NLS, and ScrγPNA4-NLS at 8 μM. (4F) Gene expression levels of C-Myc in U2932 cells after 24 h treatment with γPNA2-NLS and ScrγPNA4-NLS at indicated doses.
# as §1
# C-Myc oncogene [3] = test: Gene expression (RT-PCR) of C-Myc and downstream targets in Raji cells; assay type: cell-based, human; details: 24 h, 8 μM
# Method: as §2, §1
# U2932 derived xenografts = test: Tumor growth and survival study in U2932 derived xenograft mice; assay type: in vivo; details: 5 mg/kg systemic on day 1, 4, 7, and 10
# Method: FIGS. 7A-C show survival data of mice after systemic administration of indicated PNAs. (7A) Graph representing the tumor volume of U2932 xenografts after systemic treatment with indicated PNAs (n≥4 mice per group). PNAs were administered systemically on day 1, 4, 7, and 10 (n≥4 mice per group). (7B) The survival of U2932 derived xenograft mice after treatment with γPNA2-NLS, γPNA3, and ScrγPNA4-NLS at 5 mg/kg dose in comparison to the control (saline) mice. (7C) Complete blood count analysis of mice from different groups at the end of the study. RBC: red blood cells; WBC: white blood cells; HGB: hemoglobin; PLT: platelets; HCT: hematocrit; MCH: […]. (D) Blood chemistry analysis of mice from different groups at the end of the study. ALT: alanine transaminase; AST: aspartate transaminase; BUN: blood urea nitrogen; LDH: Lactate dehydrogenase. Results are presented as mean±SEM (n≥4).
# In vivo studies in xenograft mice model: U2932 derived xenografts were generated by implanting 10 million cells subcutaneously on the lower right flank of the female NSG mice (NOD.Cg-Prkdc^scidIl2rg^tm1Wj1/SzJ, #005557, Jackson Laboratories, USA) of 5-6 weeks. The mice were maintained in the animal care facility at the University of Connecticut following the required Institutional Animal Care and Use Committee guidelines (IACUC). Mice developed palpable tumors after 3-4 weeks of implantation. Tumor dimensions including length (l), breadth (b), and height (h) were measured using a caliper and volume was calculated using the formula for ellipsoid (0.5236×lbh).
# Survival study: Mice bearing tumors about 100-150 mm^3 were divided into 4 groups. Mice were treated with either γPNA2-NLS, γPNA3, Scr-γPNA4-NLS, or saline. PNAs were administered at 5 mg/kg dose on day 1, 4, 7, and 10. The change in tumor volume was measured every day. Mice were euthanized when the tumor volume reached 2000 mm^3. Blood was collected via cardiac punter in 1.5 ml tubes containing 0.5 M EDTA. Organs including tumor, liver, kidney, spleen, heart and lung were collected. Tumor fraction and all organs were kept in 10% formalin and submitted for histology. The complete blood count analysis was performed on the collected blood samples using Sysmex CBC analyzer. Plasma was separated from the blood samples and submitted to Antech diagnostic for blood chemistry analysis to quantify the levels of alanine transaminase, lactate dehydrogenase, aspartate transaminase and blood urea nitrogen.
molecule,measurement,setting,value
"C/C=C1\NC(=O)[C@H]2CSSCC/C=C/[C@H](CC(=O)N[C@H](C(C)C)C(=O)N2)OC(=O)[C@H](C(C)C)NC1=O [Romidepsin, reference compound]",cytotoxicity at 0.01 µM,"U2932 cells; Homo sapiens, U2932, 96 h, read-out: decrease in viability, alone",60%
"JJJJTTJJ-OOO-CCTTCCCCACCCTCCCCACCCTC-K-OOO-VKRKKKP (gamma PNA tail clamp; linkers; NLS peptide; misc_feature 1 JJJJTTJJ-linker- is covalently linked to the backbone, wherein J is pseudoisocytosine and the linker is 11-Amino-3,6,9-Trioxaundecanoic Acid (DCHA), represented as -OOO-; misc_feature 23 -K-linker-SEQ ID NO: 5 is covalently linked to the backbone, wherein the linker is 11-Amino-3,6,9-Trioxaundecanoic Acid (DCHA), represented as -OOO-; modified_base 1..23 OTHER; peptide nucleic acid) [γPNA1-NLS]","BCL-2 levels, combination with romidepsin in comparison to only romidepsin",C-Myc oncogene [1]; day 4,reduced levels
same,"decrease in C-Myc levels, combination with romidepsin compared with only romidepsin","C-Myc oncogene [1]; day 4, PNA 8 uM, romidepsin 10 nM",approximately 50%
same,change in levels of C-Myc (in words),C-Myc oncogene [2],did not observe any change in levels of C-Myc
same,levels of downstream targets MCL1 and EZH2,C-Myc oncogene [2],no change in their levels
same,change in levels of C-Myc (in words),C-Myc oncogene [3],did not observe any change in levels of C-Myc
same,levels of downstream targets BCL2 and EZH2,C-Myc oncogene [3],no change in their levels
same,combination effect with romidepsin on viability (in words),"U2932 cells; U2932 cells, romidepsin 10 nM, PNA 8 uM",synergistic activity
same,"decrease in U2932 cell viability, combination with romidepsin","U2932 cells; romidepsin 10 nM pretreatment 24 h, PNA 8 uM, day 4",approximately 80%
"X3TCCCTCCCTCCGTTCTTTTTCCCX4 (JJJTJJJT linker N-term; C-terminal lysine; gammaPNA; misc_feature 1 JJJTJJJT-linker- is covalently linked to the backbone, wherein J is pseudoisocytosine and the linker is 11-Amino-3,6,9-Trioxaundecanoic Acid (DCHA), represented as -OOO-; misc_feature 23 K is covalently linked to the backbone; modified_base 1..23 OTHER; peptide nucleic acid) [γPNA3, site 2 gamma tail clamp PNA without NLS]",tumor growth in comparison to the control groups,U2932 derived xenografts,significantly reduced tumor growth
same,survival of the mice,U2932 derived xenografts; saline 21 days,23 days
